Values of other authors, collected in patent US20180235869A1, “METHODS AND COMPOSITIONS FOR SOFT ANTICHOLINERGIC ZWITTERIONS” (Bodor Laboratories, Inc., priority 2015, published 2018).

Conditions: solid oral form

C[N+]1(C)CCC(OC(=O)C(O)(c2ccccc2)C2CCCC2)C1 (stereo not drawn) [glycopyrrolate]
reducing drooling (children): effective in reducing drooling | dropped out of the study because of adverse effects (children, most with cerebral palsy): over 20% | children affected by adverse events (most with cerebral palsy): 69%
